{"source": "patent US11400062B2", "about": "“Compositions comprising enzyme-cleavable amphetamine prodrugs and inhibitors thereof” (Signature Therapeutics, Inc., priority 2010, dated 2022)", "key": {"[1]": {"experiment": "In vivo tolerability in rats (intravenous)", "design": "species or system rat", "details": "for dose tolerated by rats: IV", "description": "(§1) Male naïve Sprague-Dawley rats, 4 per dose, were used in the study. Rats were weighed, and then placed under a heat lamp for 15-20 minutes to dilate the lateral tail veins. […] Before dosing, rats were placed in Broome restrainers and the drug was introduced into one of the tail veins using a syringe and needle. […] Blood samples were collected 5 minutes post-dose via the saphenous vein. The rats were observed up to 24 hours.\nas §1\nThe protocol to assess the IV tolerability of Compound AM-3 (lisdexamphetamine) was as described in Examples 9 and 13 above."}, "[2]": {"experiment": "Pharmacokinetics of prodrug following PO administration to rats", "details": "for Cmax / Tmax: male, Sprague Dawley, rat, plasma, po"}, "[3]": {"experiment": "Pharmacokinetics of prodrug following IV administration to rats", "details": "for Cmax: male, Sprague Dawley, rat, plasma, iv"}, "trypsin": {"target": "T1, trypsin (Bos taurus, UniProt P00760)", "T1 sequence (P00760 24-246)": "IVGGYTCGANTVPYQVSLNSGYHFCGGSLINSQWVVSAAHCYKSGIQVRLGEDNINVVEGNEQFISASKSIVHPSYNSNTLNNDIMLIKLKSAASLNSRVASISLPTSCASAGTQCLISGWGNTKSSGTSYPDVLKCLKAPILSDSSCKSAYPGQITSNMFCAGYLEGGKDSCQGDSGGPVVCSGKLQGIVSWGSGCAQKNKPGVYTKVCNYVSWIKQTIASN", "experiment": "In vitro trypsin conversion of prodrugs to amphetamine and inhibition by trypsin inhibitor", "details": "bovine, trypsin from bovine pancreas; for half-life at 0.761 mM: pH 8; for half-life: pH 8, with Compound 109 (trypsin inhibitor), 2 uM"}, "[4]": {"target": "T2, trypsin from bovine pancreas (Bos taurus, UniProt P00760)", "T2 sequence (P00760 24-246)": "T1 sequence (P00760 24-246)", "experiment": "In vitro trypsin conversion of prodrugs to amphetamine and inhibition by trypsin inhibitor", "details": "no trypsin inhibitor; 0.761 mM prodrug HCl, 0.0228 mg/ml trypsin, pH 8, 37° C."}, "[5]": {"details": "rat plasma, AM-4 PO 24 mg/kg (63 μmol/kg)"}}}
{"compound": "CC(=O)N[C@@H](CCCNC(=N)N)C(=O)N[C@@H](C)Cc1ccccc1", "note": "(stereo in doubt) [Compound AM-1, 2-acetylamino-5-guanidino-pentanoic acid ((R)-1-methyl-2-phenyl-ethyl)-amide]", "values": [{"measurement": "time to recover to normal activity", "setting": "[1]; AM-1 IV 87 μmol/kg", "value": "≤ 2", "unit": "min"}, {"measurement": "dose tolerated by rats", "setting": "[1]", "value": 87, "unit": "µmol/kg"}, {"measurement": "Cmax", "setting": "[2]; 24 mg/kg", "value": "1.28 ± 0.81", "unit": "ng/mL"}, {"measurement": "Tmax", "setting": "[2]; 24 mg/kg", "value": "0.625 ± 0.43", "unit": "h"}, {"measurement": "Cmax", "setting": "[3]; 5 mg/kg", "value": "3250 ± 310", "unit": "ng/mL"}, {"measurement": "half-life at 0.761 mM", "setting": "trypsin", "value": "39.9 ± 0.5", "unit": "h"}, {"measurement": "half-life", "setting": "trypsin", "value": "54 ± 4.6", "unit": "h"}, {"measurement": "Rate of AMP formation, Ave ± sd", "setting": "[4]", "value": "0.0455 ± 0.0102", "unit": "umols/h/UBAEE"}]}
{"compound": "C[C@@H](Cc1ccccc1)NC(=O)[C@H](CCCNC(=N)N)NC(=O)CC(=O)O", "note": "[Compound AM-2, N-[4-guanidino-1-((R)-1-methyl-2-phenyl-ethylcarbamoyl)-butyl]-malonic acid]", "values": [{"measurement": "time to recover to normal activity", "setting": "[1]; AM-2 IV 155 μmol/kg", "value": "≤ 30", "unit": "min"}, {"measurement": "dose tolerated by rats", "setting": "[1]", "value": 155, "unit": "µmol/kg"}, {"measurement": "Cmax", "setting": "[2]; 27 mg/kg", "value": "811 ± 850", "unit": "ng/mL"}, {"measurement": "Tmax", "setting": "[2]; 27 mg/kg", "value": "0.625 ± 0.25", "unit": "h"}, {"measurement": "Cmax", "setting": "[3]; 6 mg/kg", "value": "2600 ± 260", "unit": "ng/mL"}, {"measurement": "half-life at 0.761 mM", "setting": "trypsin", "value": "59.9 ± 17.1", "unit": "h"}, {"measurement": "half-life", "setting": "trypsin", "value": "68.5 ± 16.4", "unit": "h"}, {"measurement": "Rate of AMP formation, Ave ± sd", "setting": "[4]", "value": "0.0310 ± 0.0004", "unit": "umols/h/UBAEE"}]}
{"compound": "C[C@@H](Cc1ccccc1)NC(=O)[C@@H](N)CCCCN", "note": "[Compound AM-3, lisdexamphetamine, reference compound]", "values": [{"measurement": "time to recover to normal activity", "setting": "[1]; AM-3 IV 48 μmol/kg", "value": "≤ 120", "unit": "min"}, {"measurement": "death of the rats", "setting": "[1]; AM-3 IV 95 μmol/kg", "value": 50, "unit": "%"}, {"measurement": "time to death", "setting": "[1]; AM-3 IV 95 μmol/kg and 190 μmol/kg", "value": "less than 1 min"}, {"measurement": "death of the rats", "setting": "[1]; AM-3 IV 190 μmol/kg", "value": 100, "unit": "%"}, {"measurement": "Clinical observations", "setting": "[1]; AM-3 IV 64 mg/kg (190 μmol/kg), 1 rat", "value": "Died 10 sec post dose"}, {"measurement": "dose tolerated by rats", "setting": "[1]", "value": 48, "unit": "µmol/kg"}, {"measurement": "Cmax", "setting": "[2]; 22 mg/kg", "value": 357, "unit": "ng/mL"}, {"measurement": "Tmax", "setting": "[2]; 22 mg/kg", "value": "0.625 ± 0.25", "unit": "h"}, {"measurement": "Cmax", "setting": "[3]; 4.5 mg/kg", "value": "1670 ± 580", "unit": "ng/mL"}, {"measurement": "half-life at 0.761 mM", "setting": "trypsin", "value": "112 ± 14", "unit": "h"}, {"measurement": "half-life", "setting": "trypsin", "value": "393 ± 431", "unit": "h"}, {"measurement": "Rate of AMP formation, Ave ± sd", "setting": "[4]", "value": "not detectable"}]}
{"compound": "CC(=O)N[C@@H](CCCCN)C(=O)N[C@@H](C)Cc1ccccc1", "note": "[Compound AM-5, Amphetamine-lysine-acetate]", "values": [{"measurement": "Cmax", "setting": "[3]; 4.5 mg/kg", "value": "2150 ± 1700", "unit": "ng/mL"}]}
{"compound": "Amphetamine-arginine-N-methyl [Compound AM-4]", "values": [{"measurement": "AMP Cmax ± sd", "setting": "[2]; [5]", "value": "1.92 ± 0.20", "unit": "ng/mL"}, {"measurement": "AMP Tmax ± sd", "setting": "[2]; [5]", "value": "1.00 ± 0.0", "unit": "h"}, {"measurement": "AMP Cmax ± sd", "setting": "[3]; rat plasma, AM-4 IV 4.5 mg/kg (12 μmol/kg)", "value": "17.9 ± 3.5", "unit": "ng/mL"}]}
